Values of other authors, collected in patent US5169665A, “Tris-hydroxymethyl alkane esters as low calorie fat mimetics” (Nabisco, Inc., priority 1990, dated 1992).

Key:
[1] = rats fed ad libitum, versus control animals on a normal diet
pancreatic lipase = conditions: quoted from Minich, col. 4

For `CCCCCCCC(=O)OCC(COC(=O)CCCCCCC)(COC(=O)CCCCCCC)COC(=O)CCCCCCC` [pentaerythritol tetracaprylate], the food consumption [1] is given as “consumed more than control animals on a normal diet” and the “hydrolysis by pancreatic lipase” value (pancreatic lipase) is given as “not attacked, hydrolyzed, by the enzyme pancreatic lipase”.
